In PMC3612826, “Structural-Functional Analysis of 2,1,3-Benzoxadiazoles and Their N-oxides As HIV-1 Integrase Inhibitors” (Acta Naturae, 2013):

Key:
[1] = target: recombinant HIV-1 IN (Human immunodeficiency virus type 1 group M subtype B, UniProt P12497); assay: biochemical; format: biochemical
[2] = target: wild-type HIV-1 IN (Human immunodeficiency virus type 1 group M subtype B, UniProt P12497); assay: biochemical; format: biochemical

Row | SMILES | IC50 [1] | IC50 [2] | Inhibitory potential, 3'-processing [1] | Inhibitory potential, strand transfer [2]
1 | O=[N+]([O-])c1cc([N+](=O)[O-])c2no[n+]([O-])c2c1-[n+]1ccccc1 [Compound 24] | 75 ± 15 µM | 80 ± 20 µM | – | –
2 | [O-][n+]1onc2ccccc21 [Compound 1, unsubstituted BFX] | > 1000 µM | > 1000 µM | exhibited no inhibitory potential | exhibited no inhibitory potential
